Laboratory results reported in patent US4396598A, “Triiodoisophthalamide X-ray contrast agent” (Mallinckrodt, Inc., priority 1982, dated 1983).

What was measured:
Swiss mice = assay: Acute Intravenous Toxicity in Mice; type: in vivo; conditions: i.v., 40% I, seven day observation
Procedure: (§1) The following pharmacological studies were conducted on N,N'-bis(2,3-dihydroxypropyl)-5-N-(2-hydroxyethyl)glycolamido-2,4,6-triiodoisophthalamide (PRODUCT), prepared by the method of Example 1.
A solution of the PRODUCT (40% I) was injected into the lateral tail vein of young adult male and female Swiss mice at a rate of 1 ml/min. […]

[1] = Radiographic observations, whole body radiographs in mouse after intravenous administration; type: in vivo; conditions: male mouse, i.v. (lateral tail vein), 10,000 mg I/kg (40% I solution), immediately and 5 minutes after administration
Procedure: A male mouse (23 g) was anesthetized with sodium pentobarbital (40 mg/kg, i.p.; Nembutal®, Abbott Laboratories). The N,N'-bis(2,3-dihydroxypropyl)-5-N-(2-hydroxyethyl)glycolamido-2,4,6-triiodoisophthalamide prepared by method of Example 1, was administered at a dose of 10,000 mg I/kg (40% I solution) via a lateral tail vein of the mouse at a rate of 1 ml/minute.

[2] = Radiographic observations, lateral radiograph of head and thorax in rat after intracisternal injection; type: in vivo; conditions: male rat, 137 mg I/kg (40% I solution), immediately after administration
Sprague Dawley rats = assay: Acute Intracisternal Toxicity in Rats; type: in vivo; conditions: concentration 450, two day observation, 95% confidence limits 874-1,385
Procedure: as §1
(§2) The technique described by Melartin, et al. (Invest. Radiol. 5: 13-21, 1970) was utilized to evaluate lethal effects of a solution of the PRODUCT after injection into cerebrospinal fluid at the cisterna magna. Young adult male Sprague Dawley rats were used. After dosing, the animals were housed individually and observed for immediate reactions and periodically for a two day observation period. The LD50 value was calculated by the method of Litchfield and Wilcoxin (J. Pharmacol. Exp. Therap. 96: 99-113, 1949) with the following results: […]

[3] = Acute Intracisternal Toxicity in Rats; type: in vivo, Sprague Dawley rats; conditions: rat, in vivo, concentration 450, two day observation, 95% confidence limits 1,853-2,936
Procedure: as §1, §2

## O=C(NCC(O)CO)c1c(I)c(C(=O)NCC(O)CO)c(I)c(N(CCO)C(=O)CO)c1I (centres unmarked) [PRODUCT, N,N'-Bis(2,3-dihydroxypropyl)-5-N-(2-hydroxyethyl)glycolamido-2,4,6-triiodoisophthalamide]
Swiss mice; 18,500 mg I/kg (39,220 mg/kg)
  NUMBER OF MORTALITIES/NUMBER DOSED: 0/8
Swiss mice; 20,000 mg I/kg (42,400 mg/kg)
  NUMBER OF MORTALITIES/NUMBER DOSED: 5/8
Swiss mice; 21,500 mg I/kg (45,580 mg/kg)
  NUMBER OF MORTALITIES/NUMBER DOSED: 10/10
Swiss mice; mice
  LD50: about 20,000 mg I/kg
[1]
  opacification on whole body radiographs: opacification of the liver and cardiovascular and renal excretory systems
[2]
  visualization on lateral radiograph of the head and thorax: good visualization of the cisterna magna, basal cisterns, and cervical subarachnoid space
Sprague Dawley rats
  LD50 (95% Confidence Limits): 1,100 mg I/kg
[3]
  LD50 at 48 h: 2330 mg/kg
